The values that follow come from PubChem BioAssay (NCI).

Common to all, as to experiment: inhibition of tumour cell growth, NCI panel, 48 h
In experiment [1] the test system is HCC-2998 colon.
The test system of experiment [2] is HOP-92 NSCLC.
The subject of experiment [3] is OVCAR-5 ovarian.
In experiment [4] the test system is TK-10 renal.
Experiment [5] has as its system UACC-62 melanoma.
Experiment [6] relates to MALME-3M melanoma.
Experiment [7] deals with OVCAR-8 ovarian.
In experiment [8] the test system is K-562 leukemia.
In experiment [9] the test system is OVCAR-4 ovarian.
Experiment [10] has as its system SW-620 colon.

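Dose response: 5 concentrations. Exposure: 48 h. Format: 96-well plates. Endpoint: linear interpolation; highest concentration if not reached. At the GI50, growth is halved. At the TGI there is no net growth.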

Turning to `CC(C)(C)n1cc(-c2ccnc(NCCNS(=O)(=O)c3ccc(Br)cc3)c2)c(-c2cccc(O)c2)n1`, the GI50 in experiment [1] was 1.84 µM; in [2], 1.51 µM; in experiment [3], 1.78 µM; in experiment [4], 2.24 µM; in [5] it was 1.57 µM; in experiment [6] it was 1.67 µM. In addition, the GI50 is 2.27 µM in experiment [7], 0.573 µM in experiment [8], 1.55 µM in experiment [9] and 1.72 µM in [10]. Moreover, the TGI amounted to 3.53 µM in experiment [1]; 3.86 µM in [2]; 3.53 µM in experiment [3]; 5.93 µM in [4]; 3.08 µM in experiment [5]; 3.34 µM in experiment [6]. The TGI amounted to 7.71 µM in experiment [7], 2.85 µM in experiment [8], 3.59 µM in [9] and 3.46 µM in experiment [10].

On to `Cc1cc(CS(=O)(=O)/C=C/c2ccccc2[N+](=O)[O-])c(CS(=O)(=O)/C=C/c2ccccc2[N+](=O)[O-])cc1C`, for which the TGI in [1] was greater than 100 µM; in experiment [2], 74.1 µM; in experiment [3], greater than 100 µM; in [4], greater than 81.8 µM; in experiment [5], greater than 100 µM; in [6] it was greater than 100 µM. Besides, the TGI was greater than 100 µM in experiment [7], greater than 100 µM in experiment [8], 32.3 µM in experiment [9] and greater than 100 µM in experiment [10].

On to `COc1cc[nH]c1/C=C1\C(=O)Nc2ccc(F)c(C#CC3(O)CCOCC3)c21`, for which the GI50 in experiment [1] was 0.676 µM; in [2] it was 0.678 µM; in experiment [3], 0.714 µM; in experiment [4], 0.507 µM; in experiment [5], 0.375 µM; in [6] it was 1.22 µM. Also, the GI50 was 0.867 µM in experiment [7], 1.36 µM in experiment [8], 2.34 µM in [9] and 0.619 µM in experiment [10]. Also, the TGI in experiment [1] was 2.59 µM; in [2], 2.02 µM; in experiment [3] it was greater than 7.16 µM; in experiment [4], 2.92 µM; in experiment [5], 0.929 µM; in experiment [6] it was 5.81 µM. The TGI is greater than 25 µM in [7], greater than 25 µM in experiment [8], 14.7 µM in experiment [9] and greater than 8.38 µM in [10].

`Clc1ccc2c(Cl)ncnc2c1`: the TGI in [1], in experiment [2], in [3], in experiment [4], in [5] and in experiment [6] was greater than 100 µM throughout. In addition, the TGI in experiment [7], in [8], in [9] and in experiment [10] was greater than 100 µM throughout.

Take `COC(=O)C(CC=O)C(=O)C(=O)Nc1cccc(C(F)(F)F)c1` (stereo not given): the TGI in experiment [1], in [2], in experiment [3], in experiment [4], in experiment [5] and in [6] was greater than 100 µM each time. The TGI in experiment [7], in [8], in [9] and in [10] was greater than 100 µM in each case.
